Earlier results as cited in patent publication US20110008495A1, “LIQUID DIETARY SUPPLEMENT COMPOSITION” (NAWGAN PRODUCTS, LLC, priority 2009, published 2011).

Experiments:
[1] = system: individuals diagnosed with mild to moderate Alzheimer's disease
[2] = midlife caffeine consumption
diabetic animals = conditions: long-term consumption in distilled water

C[N+](C)(C)CCOP(=O)([O-])OC[C@H](O)CO [A-GPC, α-glyceryl phosphoryl choline]
absolute magnitude of change in overall cognitive ability (Mini Mental State Exam) ([1]; A-GPC over a 6 month period): offset a full year of typical decline
verbal memory and overall cognitive ability ([1]; A-GPC over a 6 month period vs patients not given A-GPC, 126 individuals): significant improvements

Cn1c(=O)c2c(ncn2C)n(C)c1=O [caffeine]
risk of dementia later in life [2]: significantly reduces

CC(C)=CCC/C(C)=C/C=C/C(C)=C/C=C/C(C)=C/C=C/C=C(C)/C=C/C=C(C)/C=C/C=C(\C)CCC=C(C)C [lycopene]
markers of inflammation and oxidation (diabetic animals): significantly decreased
memory performance (diabetic animals): significantly improved
